According to patent publication US10251869B2, “Compositions and methods of inhibiting metallo-β-lactamases” (priority 2014, dated 2019):
≈ marks a conversion by molar mass, not a printed value. Where two headings read alike, the source gives them in different places.

Columns and labels:
[1] = test system: VIM-24 producing K. pneumoniae; experiment: Imipenem MIC of clinical isolate, VIM-24 K. pneumoniae; format: cell-based; conditions: Klebsiella pneumoniae
[2] = test system: E. coli DH10B pBCSK(−) producing R228P variant; experiment: MIC by agar dilution, E. coli DH10B producing VIM-2 R228P; format: cell-based; conditions: Escherichia coli
Experimental: (§1) E. coli DH10B (Invitrogen, Carlsbad, Calif.) was used as a host strain for pBCSK (−) blaVIM-2, and to obtain a mutant library at position 228 by site-saturation mutagenesis, using the QuickChange XL Site-directed Mutagenesis Kit (Stratagene). Briefly, primers that capture all 19 variants at MBL position 228 were designed and PCR mutagenic reactions were conducted using pBCSK (−) blaVIM-2 as a template, and transformed into E. coli DH10B. Single colonies were selected for plasmid purification, and successful mutagenesis was verified by complete DNA sequencing.
(§2) The effect of Zn^2+ availability was also tested by agar dilution using MH supplemented with 250 μM ZnSO4 or 5 μM EDTA. Reported values are the mode of at least 3 biological replicates.

[3] = test system: E. coli DH10B pBCSK(−) producing VIM-2 (228R); experiment: MIC by agar dilution, E. coli DH10B producing VIM-2; format: cell-based; conditions: Escherichia coli, read-out: MIC
Description: A forward primer containing the SacI restriction site and a reverse primer with the BamHI restriction site were used to amplify blaVIM-2 including the pET24a(+) ribosomal binding site, using plasmid pET-24a(+)-blaVIM-2 as template. The product was then subcloned into phagemid pBCSK (−) (Agilent (Santa Clara, Calif.)) using the above restriction sites, and thus placing the blaVIM-2 open reading frame under control of the lac promoter, to yield phagemid pBCSK (−) blaVIM-2.
as §1, §2

[4] = test system: E. coli DH10B pBCSK(−) producing R228M variant; experiment: MIC by agar dilution, E. coli DH10B producing VIM-2 R228M; format: cell-based; conditions: Escherichia coli
Experimental: as §1, §2

[5] = test system: E. coli DH10B pBCSK(−) producing R228Y variant; experiment: MIC by agar dilution, E. coli DH10B producing VIM-2 R228Y; format: cell-based; conditions: Escherichia coli
Experimental: as §1, §2

[6] = test system: VIM-2 producing P. aeruginosa; experiment: Imipenem MIC of clinical isolate, VIM-2 P. aeruginosa; format: cell-based
[7] = test system: E. coli DH10B pBCSK(−) producing R228Q variant; experiment: MIC by agar dilution, E. coli DH10B producing VIM-2 R228Q; format: cell-based; conditions: Escherichia coli
Experimental: as §1, §2

[8] = test system: E. coli DH10B pBCSK(−) producing VIM-24 (R228L); experiment: MIC by agar dilution, E. coli DH10B producing VIM-24; format: cell-based; conditions: Escherichia coli, read-out: MIC
Experimental: as §1, §2

[9] = test system: E. coli DH10B pBCSK(−) producing R228K variant; experiment: MIC by agar dilution, E. coli DH10B producing VIM-2 R228K; format: cell-based; conditions: Escherichia coli
Experimental: as §1, §2

[10] = test system: E. coli pBC SK(−); experiment: MIC by agar dilution, E. coli DH10B host with empty phagemid; format: cell-based; conditions: Escherichia coli
Experimental: as §1, §2

[11] = target: T1, VIM-2 (Pseudomonas aeruginosa, UniProt Q9K2N0); experiment: BTZ inhibition kinetics of nitrocefin hydrolysis by VIM-2; format: biochemical, P. aeruginosa
T1 construct: made in house; host or cells: E. coli BL21(DE3) pLys, plasmid pET-24a(+)-blaVIM-2-S21
Description: (§3) Analysis of BTZ inhibition kinetics. Models involving one, or two-step slow binding were considered to analyze BTZ inhibition of NFC hydrolysis by VIM-2 and VIM-24 (Scheme 1).
(§4) Here E represents the free enzyme, and I the free inhibitor, EI is the final enzyme-inhibitor complex for a single step slow binding mechanism, and E*I is the enzyme-inhibitor complex formed after conformational changes in a two-step slow binding mechanism. Therefore, the dissociation constant for the EI complex (Ki), also called the inhibitor constant, is defined as Ki=k−1/k1; the dissociation constant for the E*I complex (Ki′) is defined as Ki′=k−2/k2, and the overall dissociation constant for the two-step mechanism (Ki*) is defined as Ki*=Ki/(1+([…])).
(§5) The Ki for each inhibitor was determined by direct competition assays under steady-state conditions. The initial velocity was measured in the presence of a constant concentration of enzyme (3 nM for VIM-2 and 4 nM for VIM-24) with increasing concentrations of inhibitor (5-60 μM) against a fixed concentration (5 x KM) of the indicator substrate, NCF, as previously described (42-44). The reactions were started by addition of VIM-2 or VIM-24 to substrate or to mixtures of substrate and inhibitor. Data were linearized by plotting inverse initial steady-state velocities (1/v0) against inhibitor concentration (I). Ki (observed) was determined by dividing the value for the y intercept by the slope of the line. Ki determinations were corrected to account for the affinity of NCF for the β-lactamase according to equation 3.
(§6) Measurements of association rate constants for inhibitor binding were carried out at 25° C. in 10 mM HEPES at pH 7.5 supplemented with 200 mM NaCl, 50 μM […] and 50 μg/ml BSA, in the presence of several concentrations of each compound. Reactions were then initiated by the addition of β-lactamase (3 nM VIM-2 or 4 nM VIM-24) to a mixture of 50 μM NCF and each BTZ without pre-incubation. Inhibitor association rate constants were estimated from linear extrapolation of the observed rate constant for inhibition (kobs), which was obtained by fitting progress curves of NFC hydrolysis to Eq. 4:
(§7) As previously described, the linear dependence of kobs vs. [I] at limiting I concentration approximates second-order rate constant k2/Ki. The observed second-order rate constant also includes an adjustment for competition between inhibitor and substrate binding (Eq. 5).
(§8) Also, vs calculated from the progress curves of NCF hydrolysis for each concentration of inhibitor were used to determine Ki*, according to the relationship shown in equation 6 (5). The value reported is the mean of three velocities±SD.
(§9) To further test the time-dependent inhibition mechanism of inhibitor binding, assays using dilutions of pre-formed complexes were performed. For these experiments, 1 μM of enzyme was incubated with varying concentrations of the inhibitor which allowed for complete inactivation of the enzyme during the 5 min incubation at 25° C. The reactions were then diluted 2,000-fold in 10 mM HEPES at pH 7.5 supplemented with 200 mM NaCl, 50 μM […] and 50 μg/ml BSA, which contained 50 μM NCF. Reactivation of the enzyme based on NCF hydrolysis was monitored over time. Control reaction with the free enzyme was performed in the same fashion.

[12] = target: T2, VIM-24 (Escherichia coli, UniProt Q5U7L7, R205L); experiment: BTZ inhibition kinetics of nitrocefin hydrolysis by VIM-24; format: biochemical; conditions: rate constant for formation of E*I
T2 construct: which corresponds to cleavage after residues 20 (plus an additional Met residue on the N-terminus); made in house; host or cells: E. coli BL21(DE3) pLys, plasmid pET-24a(+)-blaVIM-24-S21
Description: as §3, §4, §5, §6, §7, §8, §9

[13] = MHA supplemented with 5 μM EDTA
[14] = MHA supplemented with 250 μM Zn2+

## C[C@@H](O)[C@H]1C(=O)N2C(C(=O)O)=C(SCCN=CN)C[C@H]12 [Imipenem]
[1]; VIM-24 producing K. pneumoniae
  MIC: 2 µg/mL
[1]; VIM-24 producing K. pneumoniae clinical isolate
  MIC: 1 µg/mL
[2]; MHA
  MIC: 0.5 µg/mL (≈ 1.67 µM)
[2]; [13]
  MIC: ≤ 0.125 µg/mL
[2]; [14]
  MIC: 0.25 µg/mL (≈ 0.835 µM)
[3]; [13]
  MIC: 0.5 µg/mL (≈ 1.67 µM)
[3]; [14]
  MIC: 1 µg/mL (≈ 3.34 µM)
[3]; MHA
  MIC: 0.5 µg/mL (≈ 1.67 µM)
[4]; MHA
  MIC: 2 µg/mL (≈ 6.68 µM)
[4]; [13]
  MIC: 1 µg/mL (≈ 3.34 µM)
[4]; [14]
  MIC: 4 µg/mL (≈ 13.4 µM)
[5]; MHA
  MIC: 1 µg/mL (≈ 3.34 µM)
[5]; [13]
  MIC: 1 µg/mL (≈ 3.34 µM)
[5]; [14]
  MIC: 1 µg/mL (≈ 3.34 µM)
[6]; Pseudomonas aeruginosa
  MIC: 32 µg/mL
[6]; VIM-2 harboring P. aeruginosa clinical isolate
  MIC: 32 µg/mL
[7]; MHA
  MIC: 4 µg/mL (≈ 13.4 µM)
[7]; [13]
  MIC: 4 µg/mL (≈ 13.4 µM)
[7]; [14]
  MIC: > 4 µg/mL
[8]; [13]
  MIC: 0.5 µg/mL (≈ 1.67 µM)
[8]; [14]
  MIC: 1 µg/mL (≈ 3.34 µM)
[8]; MHA
  MIC: 0.5 µg/mL (≈ 1.67 µM)
[9]; MHA
  MIC: 0.25 µg/mL (≈ 0.835 µM)
[9]; [13]
  MIC: 0.25 µg/mL (≈ 0.835 µM)
[9]; [14]
  MIC: 0.25 µg/mL (≈ 0.835 µM)
[10]; MHA
  MIC: 0.25 µg/mL (≈ 0.835 µM)
[10]; [13]
  MIC: ≤ 0.125 µg/mL
[10]; [14]
  MIC: 0.25 µg/mL (≈ 0.835 µM)

## CC1(C)SC2CSC(CS)N2C1C(=O)O [L-VC26]
[11]; initial complex EI, NCF as reporter substrate
  Ki: 3800 ± 200 nM
[11]; overall dissociation constant of two-step mechanism (E*I)
  Ki: 250 ± 10 nM
[11]; rate constant for breakdown of E*I
  k−2: 0.001 ± 1 × 10^−3 s^−1
[11]; rate constant for formation of E*I
  k2: 0.02 ± 1 × 10^−3 s^−1
[12]
  k2: 0.04 ± 2 × 10^−3 s−1

## CC1(C)S[C@@H]2[C@H](NC(=O)[C@H](N)c3ccccc3)C(=O)N2[C@H]1C(=O)O [Ampicillin]
[2]; MHA
  MIC: 32 µg/mL (≈ 91.6 µM)
[3]; MHA
  MIC: 512 µg/mL (≈ 1470 µM)
[4]; MHA
  MIC: 1020 µg/mL (≈ 2930 µM)
[5]; MHA
  MIC: 1020 µg/mL (≈ 2930 µM)
[7]; MHA
  MIC: 1020 µg/mL (≈ 2930 µM)
[8]; MHA
  MIC: 512 µg/mL (≈ 1470 µM)
[9]; MHA
  MIC: 32 µg/mL (≈ 91.6 µM)
[10]; MHA
  MIC: 4 µg/mL (≈ 11.4 µM)

## CO/N=C(\C(=O)N[C@@H]1C(=O)N2C(C(=O)O)=C(CSc3nc(=O)c(=O)[nH]n3C)CS[C@H]12)c1csc(N)n1 [Ceftriaxone]
[2]; MHA
  MIC: 0.5 µg/mL (≈ 0.902 µM)
[3]; MHA
  MIC: 8 µg/mL (≈ 14.4 µM)
[4]; MHA
  MIC: 16 µg/mL (≈ 28.9 µM)
[5]; MHA
  MIC: 16 µg/mL (≈ 28.9 µM)
[7]; MHA
  MIC: 32 µg/mL (≈ 57.7 µM)
[8]; MHA
  MIC: 8 µg/mL (≈ 14.4 µM)
[9]; MHA
  MIC: 1 µg/mL (≈ 1.8 µM)
[10]; MHA
  MIC: 0.5 µg/mL (≈ 0.902 µM)

## CO/N=C(\C(=O)N[C@@H]1C(=O)N2C(C(=O)O)=C(COC(C)=O)CS[C@H]12)c1csc(N)n1 [Cefotaxime]
[2]; MHA
  MIC: 1 µg/mL (≈ 2.2 µM)
[3]; MHA
  MIC: 8 µg/mL (≈ 17.6 µM)
[4]; MHA
  MIC: 16 µg/mL (≈ 35.1 µM)
[5]; MHA
  MIC: 16 µg/mL (≈ 35.1 µM)
[7]; MHA
  MIC: 32 µg/mL (≈ 70.3 µM)
[8]; MHA
  MIC: 16 µg/mL (≈ 35.1 µM)
[9]; MHA
  MIC: 1 µg/mL (≈ 2.2 µM)
[10]; MHA
  MIC: 0.06 µg/mL (≈ 0.132 µM)
